# Results taken from US20240269139A1, “COMPOUNDS FOR TARGETED PROTEIN DEGRADATION OF KINASES” (DANA-FARBER CANCER INSTITUTE, INC., priority 2020, published 2024).
# “And” between values parts separate entries of the source, which are not always exact repeats. Equal entries are not always repeated. Where two headings read alike, the source gives them in different places.
# How the values were obtained:
# Assay type in all cases: cell-based
# [1] = biological target: T1, protein kinases (human kinome) (Homo sapiens, UniProt P33981); settings: for logFC TTK: Accession P33981
# T1 sequence (P33981 1-857): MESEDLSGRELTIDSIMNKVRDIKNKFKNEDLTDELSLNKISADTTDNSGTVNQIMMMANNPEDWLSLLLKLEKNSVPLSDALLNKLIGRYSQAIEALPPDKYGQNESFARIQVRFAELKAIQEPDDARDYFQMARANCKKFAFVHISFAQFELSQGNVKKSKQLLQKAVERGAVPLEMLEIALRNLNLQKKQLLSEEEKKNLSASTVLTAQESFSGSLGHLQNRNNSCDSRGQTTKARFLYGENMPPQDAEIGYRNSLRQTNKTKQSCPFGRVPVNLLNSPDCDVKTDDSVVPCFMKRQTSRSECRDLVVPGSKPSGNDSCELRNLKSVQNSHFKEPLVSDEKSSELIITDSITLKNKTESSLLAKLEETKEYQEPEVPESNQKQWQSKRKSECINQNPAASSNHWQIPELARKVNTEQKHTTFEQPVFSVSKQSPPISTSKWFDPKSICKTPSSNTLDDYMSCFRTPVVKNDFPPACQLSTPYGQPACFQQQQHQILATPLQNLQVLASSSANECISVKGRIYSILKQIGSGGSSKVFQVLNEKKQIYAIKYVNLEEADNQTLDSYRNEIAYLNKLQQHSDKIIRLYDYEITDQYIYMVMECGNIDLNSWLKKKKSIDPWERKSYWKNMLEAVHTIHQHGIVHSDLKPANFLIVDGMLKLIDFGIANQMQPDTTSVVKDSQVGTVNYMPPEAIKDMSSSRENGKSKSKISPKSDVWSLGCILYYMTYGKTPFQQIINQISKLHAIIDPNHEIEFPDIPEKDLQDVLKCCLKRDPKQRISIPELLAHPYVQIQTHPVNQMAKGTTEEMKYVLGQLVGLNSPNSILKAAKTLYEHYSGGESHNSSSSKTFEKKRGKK
# [2] = biological target: protein kinases (human kinome) (Homo sapiens, UniProt P51812); settings: RPS6KA3 (P51812)
# Chain of protein kinases (human kinome) (Homo sapiens, UniProt P51812) (P51812 whole entry): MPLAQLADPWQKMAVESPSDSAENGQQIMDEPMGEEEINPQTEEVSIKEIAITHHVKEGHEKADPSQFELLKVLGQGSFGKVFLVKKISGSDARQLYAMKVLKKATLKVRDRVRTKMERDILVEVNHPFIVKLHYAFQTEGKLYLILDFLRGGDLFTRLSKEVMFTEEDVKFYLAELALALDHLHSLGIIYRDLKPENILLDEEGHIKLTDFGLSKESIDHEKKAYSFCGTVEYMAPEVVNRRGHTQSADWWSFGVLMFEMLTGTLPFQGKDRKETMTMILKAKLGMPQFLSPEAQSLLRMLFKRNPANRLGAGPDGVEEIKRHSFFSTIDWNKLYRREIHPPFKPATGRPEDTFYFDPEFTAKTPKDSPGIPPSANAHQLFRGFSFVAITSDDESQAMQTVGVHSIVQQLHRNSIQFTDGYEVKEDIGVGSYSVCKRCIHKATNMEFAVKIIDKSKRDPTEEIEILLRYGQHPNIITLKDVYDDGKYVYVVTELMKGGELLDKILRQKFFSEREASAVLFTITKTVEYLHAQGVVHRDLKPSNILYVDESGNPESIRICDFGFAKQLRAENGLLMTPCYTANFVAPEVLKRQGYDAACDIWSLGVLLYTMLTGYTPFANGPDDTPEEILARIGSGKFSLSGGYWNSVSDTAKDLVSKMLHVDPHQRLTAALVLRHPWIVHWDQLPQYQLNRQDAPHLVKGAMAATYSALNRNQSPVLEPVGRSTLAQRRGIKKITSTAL
# [3] = biological target: protein kinases (human kinome) (Homo sapiens, UniProt Q14289); settings: for logFC: PTK2B (Q14289-1) protein abundance, degrader vs DMSO, down
# Chain of protein kinases (human kinome) (Homo sapiens, UniProt Q14289) (Q14289 whole entry): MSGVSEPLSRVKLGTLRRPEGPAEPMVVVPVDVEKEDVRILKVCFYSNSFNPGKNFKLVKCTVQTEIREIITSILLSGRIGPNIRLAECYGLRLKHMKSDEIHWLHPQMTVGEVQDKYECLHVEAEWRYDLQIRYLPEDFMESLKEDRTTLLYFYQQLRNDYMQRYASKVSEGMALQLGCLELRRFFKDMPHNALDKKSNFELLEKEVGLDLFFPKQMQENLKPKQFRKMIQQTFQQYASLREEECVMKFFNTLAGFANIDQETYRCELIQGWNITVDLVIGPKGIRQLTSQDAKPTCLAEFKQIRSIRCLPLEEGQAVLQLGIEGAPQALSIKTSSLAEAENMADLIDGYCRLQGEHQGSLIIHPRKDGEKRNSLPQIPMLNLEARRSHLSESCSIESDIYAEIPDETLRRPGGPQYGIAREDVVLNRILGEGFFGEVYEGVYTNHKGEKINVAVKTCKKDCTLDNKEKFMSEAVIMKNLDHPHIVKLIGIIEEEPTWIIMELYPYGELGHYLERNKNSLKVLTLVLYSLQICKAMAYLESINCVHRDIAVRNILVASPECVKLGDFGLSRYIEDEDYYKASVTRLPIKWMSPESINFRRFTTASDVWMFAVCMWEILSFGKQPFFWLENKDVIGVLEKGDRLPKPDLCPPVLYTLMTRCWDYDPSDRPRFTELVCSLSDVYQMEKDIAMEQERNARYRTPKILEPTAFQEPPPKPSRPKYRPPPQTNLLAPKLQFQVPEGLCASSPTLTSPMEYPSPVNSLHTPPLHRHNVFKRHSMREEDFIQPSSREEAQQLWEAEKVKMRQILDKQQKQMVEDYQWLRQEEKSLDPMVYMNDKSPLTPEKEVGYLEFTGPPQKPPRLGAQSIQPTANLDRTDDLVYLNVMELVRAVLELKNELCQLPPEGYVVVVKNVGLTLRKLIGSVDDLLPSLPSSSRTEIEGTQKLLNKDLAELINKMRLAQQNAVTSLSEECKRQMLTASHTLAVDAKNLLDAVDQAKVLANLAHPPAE
# [4] = biological target: protein kinases (human kinome) (Homo sapiens, UniProt Q16539); settings: for logFC of MAPK14: Accession Q16539; for logFC MAPK14: MAPK14, accession Q16539, direction of change down
# Chain of protein kinases (human kinome) (Homo sapiens, UniProt Q16539) (Q16539 whole entry): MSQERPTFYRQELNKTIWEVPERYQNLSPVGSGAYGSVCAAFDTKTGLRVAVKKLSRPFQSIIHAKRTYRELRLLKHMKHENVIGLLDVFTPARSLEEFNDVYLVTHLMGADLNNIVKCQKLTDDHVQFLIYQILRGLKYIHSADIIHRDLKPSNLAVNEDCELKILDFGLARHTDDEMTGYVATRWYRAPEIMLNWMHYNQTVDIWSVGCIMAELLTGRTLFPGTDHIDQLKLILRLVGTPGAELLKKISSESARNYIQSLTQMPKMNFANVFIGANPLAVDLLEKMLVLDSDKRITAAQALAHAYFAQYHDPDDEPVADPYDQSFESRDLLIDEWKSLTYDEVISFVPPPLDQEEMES
# [5] = biological target: protein kinases (human kinome) (Homo sapiens, UniProt P24941); settings: experiment wp146
# [6] = biological target: protein kinases (human kinome) (Homo sapiens, UniProt Q00535); settings: experiment wp146
# Chain of protein kinases (human kinome) (Homo sapiens, UniProt Q00535) (Q00535 whole entry): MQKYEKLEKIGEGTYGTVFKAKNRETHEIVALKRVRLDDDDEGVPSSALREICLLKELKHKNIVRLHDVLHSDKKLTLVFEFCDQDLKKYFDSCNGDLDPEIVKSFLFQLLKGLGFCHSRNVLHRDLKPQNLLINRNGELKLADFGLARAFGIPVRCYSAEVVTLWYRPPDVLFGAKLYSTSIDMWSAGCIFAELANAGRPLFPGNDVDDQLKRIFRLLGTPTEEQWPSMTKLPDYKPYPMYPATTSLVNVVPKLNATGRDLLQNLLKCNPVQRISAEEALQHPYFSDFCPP
# [7] = experiment wp168, direction down
# [8] = MAPK14 (Q16539), experiment wp168
# [9] = experiment wp146, direction down
# [10] = accession Q14289-1, experiment wp146, direction of change down
structure (smiles),measurement,setting,value
"Cc1ccc(NC(=O)c2cccc(C(F)(F)F)c2)cc1N1Cc2cnc(Nc3ccc(N4CCN(Cc5cn(CCCCCOc6cccc7c6C(=O)N(C6CCC(=O)NC6=O)C7=O)nn5)CC4)nc3)nc2N(C)C1=O (stereo not shown) [DB0646, N-(3-(7-((6-(4-((1-(5-((2-(2,6-Dioxopiperidin-3-yl)-1,3-dioxoisoindolin-4-yl)oxy)pentyl)-1H-1,2,3-triazol-4-yl)methyl)piperazin-1-v)pyridin-3-yl)amino)-1-methyl-2-oxo-1,4-dihydropyrimido[4,5-d]pyrimidin-3(2H)-yl)-4-methylphenyl)-3-(trifluoromethyl)benzamide]",logFC TTK,[1]; experiment wp045,−0.5757
same,logFC TTK,[1]; experiment wp107,−0.372
same,logFC TTK,[1]; experiment wp117,−0.4267
same,logFC TTK,[1]; experiment wp152,−0.5131
same,logFC TTK,"[1]; experiment wp160, 4 hr",−0.513
same,logFC TTK,"[1]; experiment wp160, 8 hr",−0.7057
same,logFC TTK (P33981),[1]; experiment wp045,−0.5757
same,logFC TTK (P33981),[1]; experiment wp107,−0.372
same,logFC TTK (P33981),[1]; experiment wp117,−0.4267
same,logFC TTK (P33981),[1]; experiment wp152,−0.5131
same,logFC TTK (P33981),"[1]; experiment wp160, 4 hr",−0.513
same,logFC TTK (P33981),"[1]; experiment wp160, 8 hr",−0.7057
same,logFC,"[2]; experiment wp160, 8 hr",−0.3332
same,logFC,"[2]; experiment wp160, 8 hr, direction down",−0.3332
same,logFC PTK2B (Q14289),"[3]; Experiment wp152, direction of change down",−2.998
same,logFC,[3]; 1 hr,−0.3955
same,logFC,[3]; 2 hr,−1.235
same,logFC,[3]; 4 hr,−2.341
same,logFC,[3]; 8 hr,−2.599
same,logFC PTK2B,"[3]; accession Q14289-1, experiment wp045, direction of change down",−2.774
same,logFC PTK2B,"[3]; accession Q14289-1, experiment wp114, direction of change down",−1.358
same,logFC PTK2B,"[3]; accession Q14289-1, experiment wp160, 1 hr, direction of change down",−0.3955
same,logFC PTK2B,"[3]; accession Q14289-1, experiment wp160, 2 hr, direction of change down",−1.235
same,logFC PTK2B,"[3]; accession Q14289-1, experiment wp160, 4 hr, direction of change down",−2.341
same,logFC PTK2B,"[3]; accession Q14289-1, experiment wp160, 8 hr, direction of change down",−2.599
same,logFC PTK2B,"[3]; accession Q14289, experiment wp152, direction of change down",−2.998
same,logFC of MAPK14,[4]; experiment wp172,−0.6469
same,logFC,"[4]; MAPK14 (Q16539) protein abundance, degrader vs DMSO, down",−0.7793 and −0.6013
same,logFC,"[4]; MAPK14 (Q16539), experiment wp107",−0.7601
same,logFC,"[4]; MAPK14 (Q16539), experiment wp114",−0.5814
same,logFC,"[4]; MAPK14 (Q16539), experiment wp117",−0.6392
same,logFC,"[4]; MAPK14 (Q16539), experiment wp152",−0.7821
same,logFC,"[4]; MAPK14 (Q16539), experiment wp160, 2 hr",−0.4404
same,logFC,"[4]; MAPK14 (Q16539), experiment wp160, 4 hr",−0.7162
same,logFC,"[4]; MAPK14 (Q16539), experiment wp160, 8 hr",−1.153
same,logFC,"[4]; MAPK14 (Q16539), experiment wp172",−0.6469
same,logFC MAPK14,[4]; experiment wp045,−0.7793
same,logFC MAPK14,[4]; experiment wp103,−0.6013
same,logFC MAPK14,[4]; experiment wp107,−0.7601
same,logFC MAPK14,[4]; experiment wp114,−0.5814
same,logFC MAPK14,[4]; experiment wp117,−0.6392
same,logFC MAPK14,[4]; experiment wp152,−0.7821
same,logFC MAPK14,"[4]; experiment wp160, 2 hr",−0.4404
same,logFC MAPK14,"[4]; experiment wp160, 4 hr",−0.7162
same,logFC MAPK14,"[4]; experiment wp160, 8 hr",−1.153
Cc1ccc(NC(=O)c2cccc(C(F)(F)F)c2)cc1N1Cc2cnc(Nc3ccc(N4CCN(CCCOc5cccc6c5C(=O)N(C5CCC(=O)NC5=O)C6=O)CC4)nc3)nc2N(C)C1=O (stereo not shown) [DB0662],logFC,[2]; experiment wp168,−0.452
same,logFC,[2]; [7],−0.452
same,logFC,[4]; [8],−1.002
same,logFC MAPK14,[4]; experiment wp166,−1.002
Cc1ccc(NC(=O)c2cccc(C(F)(F)F)c2)cc1N1Cc2cnc(Nc3ccc(N4CCN(CCCCC(=O)N[C@H](C(=O)N5C[C@H](O)C[C@H]5C(=O)N[C@@H](C)c5ccc(-c6scnc6C)cc5)C(C)(C)C)CC4)nc3)nc2N(C)C1=O [DB1113],logFC,[2]; experiment wp168,−0.5079
same,logFC,[2]; [7],−0.5079
same,logFC of MAPK14,[4]; experiment wp168,−1.73
same,logFC,[4]; [8],−1.73
NC(=O)c1c(F)cccc1Nc1nc(Nc2ccc(S(=O)(=O)NCCOCCOCCOCCOCCNc3cccc4c3C(=O)N(C3CCC(=O)NC3=O)C4=O)cc2)ncc1Br (stereo not shown) [TMX.02.138],logFC CDK2 (P24941-1),[5],−2.27
same,logFC CDK2 (P24941-1),[5]; direction of change down,−2.27
same,logFC TTK,[1]; experiment wp146,−0.6178
same,logFC TTK (P33981),[1]; experiment wp146,−0.6178
same,logFC,[2]; experiment wp146,−0.4023
same,logFC,[2]; [9],−0.4023
same,logFC CDK5 (Q00535),[6],−3.29
same,logFC CDK5 (Q00535),[6]; direction of change down,−3.29
same,logFC,[3],−1.24
same,logFC PTK2B,[3]; [10],−1.24
Cc1cc(Nc2ncc(Br)c(Nc3cccc(F)c3C(N)=O)n2)ccc1S(=O)(=O)NCCOCCOCCOCCOCCNc1cccc2c1C(=O)N(C1CCC(=O)NC1=O)C2=O (stereo not shown) [TMX.02.174],logFC CDK2 (P24941-1),[5],−2.295
same,logFC CDK2 (P24941-1),[5]; direction of change down,−2.295
same,logFC TTK,[1]; experiment wp146,−0.7225
same,logFC TTK (P33981),[1]; experiment wp146,−0.7225
same,logFC,[2]; experiment wp146,−0.4312
same,logFC,[2]; [9],−0.4312
same,logFC CDK5 (Q00535),[6],−3.161
same,logFC CDK5 (Q00535),[6]; direction of change down,−3.161
same,logFC,[3],−1.512
same,logFC PTK2B,[3]; [10],−1.512
